{"source": "paper PMC7718874", "about": "“Coupling of H3K27me3 recognition with transcriptional repression through the BAH-PHD-CPL2 complex in Arabidopsis” (Nature Communications, 2020)", "key": {"CDK kinases": {"system": "CDK kinases", "settings": "cited from earlier work"}, "[1]": {"system": "nascent RNA (Pol II transcription rate) of AGO5, SUC5 and downstream nontarget genes", "assay": "Nuclear run-on assay with or without FLA (flavopiridol) treatment", "set-up": "species or system Arabidopsis", "settings": "for NRO-qPCR, AT1G71900 / NRO-qPCR, AT2G27900 / NRO-qPCR, FT / NRO-qPCR, SUC5 / NRO-qPCR, AGO5: Figure 7c", "method": "FLA treatment assay was performed as previous report. In brief, 2-week-old seedlings were collected and incubated with 200 μM FLA or mock solution (DMSO) overnight. The treated seedlings were subjected to total RNA extraction.\nNuclear run-on assay was performed as previous report with minor changes. In brief, after nuclei isolation with buffer (0.25 M sucrose, 15 mM PIPES pH 6.8, 5 mM MgCl2, 60 mM KCl, 15 mM NaCl, 1 mM CaCl2, 0.9% Triton X-100, and protease inhibitor cocktail), the nuclear pellet was resuspended with nuclei storage buffer (50 mM Tris-HCl pH 8, 0.1 mM EDTA, 5 mM MgCl2 and 40% glycerol) and mixed with transcription buffer (10 mM Tris-HCl, pH 8, 2.5 mM MgCl2, 150 mM KCl, 2 mM DTT, 80 units RNase inhibitor, 0.5 mM BrUTP, 1 mM ATP, 1 mM GTP, 1 mM CTP, 0.5 mM UTP, and 0.2% sarkosyl). After incubation at 30 °C for 15 min, the run-on reaction was stopped by adding Trizol reagent (Thermo). The nuclear RNAs were extracted and treated with DNase. The DNA-free RNAs were then inoculated with 2 μg anti-BrdU antibody (abcam) at room temperature for 30 min and precipitated by Dynabeads (Thermo). After two times washing, RNAs were extracted using Trizol reagent (Thermo). cDNAs were synthesized using SuperScript IV Reverse Transcriptase (Thermo) and subjected to qPCR analysis."}}}
{"compound": "CN1CC[C@H](c2c(O)cc(O)c3c(=O)cc(-c4ccccc4Cl)oc23)[C@H](O)C1", "note": "[FLA, flavopiridol]", "values": [{"measurement": "reduction of Pol II CTD phosphorylation (in words)", "setting": "CDK kinases", "value": "reduce the phosphorylation of Pol II CTD by inhibiting the activity of CDK kinases"}, {"measurement": "nascent RNA levels upon FLA treatment (in words)", "setting": "[1]; 200 μM FLA overnight, 2-week-old seedlings, AGO5, SUC5 and downstream nontarget genes, BrUTP run-on, qPCR, normalized to 18 S rRNA, three biological repeats", "value": "greatly reduced"}, {"measurement": "difference of nascent RNA levels between genotypes upon FLA treatment (in words)", "setting": "[1]; 200 μM FLA overnight, Fig. 7c, three biological repeats", "value": "no obvious changes were observed between different genotypes"}, {"measurement": "NRO-qPCR, AT1G71900", "setting": "[1]; Col-0 FLA, Repeat 1", "value": "2e-5"}, {"measurement": "NRO-qPCR, AT2G27900", "setting": "[1]; Col-0 FLA, Repeat 1", "value": "4.5e-5"}, {"measurement": "NRO-qPCR, FT", "setting": "[1]; Col-0 FLA, Repeat 1", "value": "2e-6"}, {"measurement": "NRO-qPCR, SUC5", "setting": "[1]; Col-0 FLA, Repeat 1", "value": "2e-6"}, {"measurement": "NRO-qPCR, AT1G71900", "setting": "[1]; Col-0 FLA, Repeat 2", "value": "1.6e-5"}, {"measurement": "NRO-qPCR, AT2G27900", "setting": "[1]; Col-0 FLA, Repeat 2", "value": "1.8e-5"}, {"measurement": "NRO-qPCR, FT", "setting": "[1]; Col-0 FLA, Repeat 2", "value": "2e-6"}, {"measurement": "NRO-qPCR, SUC5", "setting": "[1]; Col-0 FLA, Repeat 2", "value": "1.2e-5"}, {"measurement": "NRO-qPCR, AT1G71900", "setting": "[1]; Col-0 FLA, Repeat 3", "value": "2e-6"}, {"measurement": "NRO-qPCR, AT2G27900", "setting": "[1]; Col-0 FLA, Repeat 3", "value": "4.7e-5"}, {"measurement": "NRO-qPCR, SUC5", "setting": "[1]; Col-0 FLA, Repeat 3", "value": "5e-6"}, {"measurement": "NRO-qPCR, AGO5", "setting": "[1]; aipp2/paipp2 FLA, Repeat 1", "value": "1.35e-7"}, {"measurement": "NRO-qPCR, AT1G71900", "setting": "[1]; aipp2/paipp2 FLA, Repeat 1", "value": "1e-5"}, {"measurement": "NRO-qPCR, AT2G27900", "setting": "[1]; aipp2/paipp2 FLA, Repeat 1", "value": "3.1e-5"}, {"measurement": "NRO-qPCR, FT", "setting": "[1]; aipp2/paipp2 FLA, Repeat 1", "value": "5e-6"}, {"measurement": "NRO-qPCR, SUC5", "setting": "[1]; aipp2/paipp2 FLA, Repeat 1", "value": "1.1e-5"}, {"measurement": "NRO-qPCR, AT1G71900", "setting": "[1]; aipp2/paipp2 FLA, Repeat 2", "value": "1.3e-5"}, {"measurement": "NRO-qPCR, AT2G27900", "setting": "[1]; aipp2/paipp2 FLA, Repeat 2", "value": "2.6e-5"}, {"measurement": "NRO-qPCR, FT", "setting": "[1]; aipp2/paipp2 FLA, Repeat 2", "value": "4e-6"}, {"measurement": "NRO-qPCR, SUC5", "setting": "[1]; aipp2/paipp2 FLA, Repeat 2", "value": "1.2e-5"}, {"measurement": "NRO-qPCR, AGO5", "setting": "[1]; aipp2/paipp2 FLA, Repeat 3", "value": "2.05e-6"}, {"measurement": "NRO-qPCR, AT2G27900", "setting": "[1]; aipp2/paipp2 FLA, Repeat 3", "value": "2.3e-5"}, {"measurement": "NRO-qPCR, AT1G71900", "setting": "[1]; aipp3 FLA, Repeat 1", "value": "1.1e-5"}, {"measurement": "NRO-qPCR, AT2G27900", "setting": "[1]; aipp3 FLA, Repeat 1", "value": "1.5e-5"}, {"measurement": "NRO-qPCR, FT", "setting": "[1]; aipp3 FLA, Repeat 1", "value": "3e-6"}, {"measurement": "NRO-qPCR, SUC5", "setting": "[1]; aipp3 FLA, Repeat 1", "value": "2e-6"}, {"measurement": "NRO-qPCR, AT1G71900", "setting": "[1]; aipp3 FLA, Repeat 2", "value": "1e-5"}, {"measurement": "NRO-qPCR, AT2G27900", "setting": "[1]; aipp3 FLA, Repeat 2", "value": "5e-5"}, {"measurement": "NRO-qPCR, FT", "setting": "[1]; aipp3 FLA, Repeat 2", "value": "1e-6"}, {"measurement": "NRO-qPCR, SUC5", "setting": "[1]; aipp3 FLA, Repeat 2", "value": "2e-6"}, {"measurement": "NRO-qPCR, AT1G71900", "setting": "[1]; aipp3 FLA, Repeat 3", "value": "1e-5"}, {"measurement": "NRO-qPCR, AT2G27900", "setting": "[1]; aipp3 FLA, Repeat 3", "value": "7.2e-5"}, {"measurement": "NRO-qPCR, SUC5", "setting": "[1]; aipp3 FLA, Repeat 3", "value": "1e-6"}, {"measurement": "NRO-qPCR, AGO5", "setting": "[1]; cpl2 FLA, Repeat 1", "value": "1.31e-6"}, {"measurement": "NRO-qPCR, AT1G71900", "setting": "[1]; cpl2 FLA, Repeat 1", "value": "2e-6"}, {"measurement": "NRO-qPCR, AT2G27900", "setting": "[1]; cpl2 FLA, Repeat 1", "value": "1.6e-5"}, {"measurement": "NRO-qPCR, FT", "setting": "[1]; cpl2 FLA, Repeat 1", "value": "1e-6"}, {"measurement": "NRO-qPCR, SUC5", "setting": "[1]; cpl2 FLA, Repeat 1", "value": "1e-5"}, {"measurement": "NRO-qPCR, AGO5", "setting": "[1]; cpl2 FLA, Repeat 2", "value": "5.33e-7"}, {"measurement": "NRO-qPCR, AT1G71900", "setting": "[1]; cpl2 FLA, Repeat 2", "value": "2e-6"}, {"measurement": "NRO-qPCR, AT2G27900", "setting": "[1]; cpl2 FLA, Repeat 2", "value": "2.7e-5"}, {"measurement": "NRO-qPCR, FT", "setting": "[1]; cpl2 FLA, Repeat 2", "value": "2e-6"}, {"measurement": "NRO-qPCR, SUC5", "setting": "[1]; cpl2 FLA, Repeat 2", "value": "7e-6"}, {"measurement": "NRO-qPCR, AT2G27900", "setting": "[1]; cpl2 FLA, Repeat 3", "value": "1.1e-5"}, {"measurement": "NRO-qPCR, FT", "setting": "[1]; cpl2 FLA, Repeat 3", "value": "1e-6"}, {"measurement": "NRO-qPCR, SUC5", "setting": "[1]; cpl2 FLA, Repeat 3", "value": "8e-6"}]}
